The values below come from PubChem BioAssay (NCI).

What all share (experiment): growth of human tumour cells (NCI), 48 h
Experiment [1] has as its system CAKI-1 renal.
Experiment [2] has as its system COLO 205 colon.
For experiment [3], the system named is HT29 colon.
Experiment [4] has as its system M14 melanoma.
Experiment [5] has as its system MDA-MB-231 breast.
For experiment [6], the system named is NCI-H226 lung.
The test system of experiment [7] is NCI/ADR-RES ovarian.
The subject of experiment [8] is SF-268 CNS.
Experiment [9] deals with UACC-257 melanoma.
Experiment [10] has as its system UACC-62 melanoma.

Each structure is given as a SMILES string. Several values for one entry are separate records, joined by “and”; a condition that tells them apart may be missing. Equal entries are not always repeated.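 Cells were grown in 96-well plates and exposed to each compound for 48 hours at five concentrations; endpoints were interpolated linearly between bracketing concentrations, or set to the highest concentration if not reached. Abbreviation: GI50, concentration required for 50% inhibition of growth. The concentration for full growth arrest is given as TGI.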 Where a SMILES comes first, the peptide text is derived from it. Bridges are numbered along the chain shown (N, C = ends). [ ]: non-standard residue; d: D form. aThr = C[C@H](O)[C@H](N)C(=O)O

`CCCCCCCCCCCC[C@@H](O)[C@H]1CC[C@H]([C@H](O)CC[C@H](O)[C@@H]2CC[C@@H](CCCCCCCC3=C[C@H](C)OC3=O)O2)O1`: the TGI in experiment [1], in experiment [2], in experiment [3], in experiment [4], in [5] and in [6] was > 50 µM throughout. Besides, the TGI in experiment [7], in experiment [8] and in experiment [10] was > 50 µM throughout. Moreover, the GI50 in [2] is 8.16 µM; in experiment [4], 4.99 µM; in [7], 2.12 µM; in [8] it was 4.21 µM; in experiment [9] it was 0.152 µM; in experiment [10], > 50 µM.

Consider `COc1cc(-c2nccc3[nH]c(-c4ccc5cc[nH]c5c4)nc23)cc(OC)c1OC`, for which the GI50 in experiment [1] is < 0.01 µM; in experiment [2], < 0.01 µM; in [3], < 0.01 µM; in experiment [5], < 0.01 µM; in [7], 0.01 µM; in [8] it was < 0.01 µM. In addition, the GI50 in experiment [10] is < 0.01 µM. The TGI was 11.2 µM in experiment [1]; < 0.01 µM in experiment [2]; 1.08 µM in experiment [3]; 1.96 µM in experiment [5]; 10.7 µM in experiment [7]; 3.21 µM in [8]. Also, the TGI in experiment [10] was 2.57 µM.

In the case of `COCCOC1=C(Cl)C(=O)c2ccccc2C1=O`, the GI50 in experiment [1] was 2.83 µM; in experiment [2] it was 3.63 µM; in experiment [3], 7.06 µM; in [5], 2.81 µM; in experiment [6], 4.18 µM; in [7], 2.39 µM. The values for the GI50 in [8], in experiment [9] and in experiment [10] were 2.24 µM, 2 µM and 1.89 µM, respectively. In addition, the TGI in experiment [1] came to 9.83 µM; in [2] it was 12.2 µM; in [3] it was 25.5 µM; in experiment [5], 11.7 µM; in experiment [6], 15.8 µM; in experiment [7], 6.7 µM. Also, the TGI in experiment [8] was determined as 9.32 µM; in experiment [9], 4.36 µM; in experiment [10], 5.1 µM.

For `COc1ccccc1Oc1nccc(-c2c(-c3ccc(F)cc3)ncn2C2CCNCC2)n1`, the GI50 in experiment [1] is > 23.2 µM; in experiment [2], 7.37 µM; in experiment [3] it was 8.72 µM; in experiment [4], > 19.1 µM; in [5] it was 14.5 µM; in experiment [7], > 25 µM. Also, the GI50 in [8] and in experiment [10] was > 25 µM throughout. Moreover, the TGI in [1] is > 25 µM; in [2], > 19.9 µM; in [3], > 25 µM; in [4], > 25 µM; in experiment [5] it was > 25 µM; in experiment [7] it was > 25 µM. In addition, the TGI in experiment [8] and in [10] was > 25 µM throughout.

Regarding `CC(C)C[C@@H]1NC(=O)[C@@H]2CCCN2C(=O)[C@@H]2CCCN2C(=O)[C@H](CC(C)C)NC(=O)[C@H](CO)NC(=O)[C@H](CCCCN)NC(=O)[C@H]([C@H](C)O)NC(=O)[C@@H]2CSSC[C@@H](NC1=O)C(=O)N[C@@H](Cc1ccccc1)C(=O)N1CCC[C@H]1C(=O)N[C@@H](CC(=O)O)C(=O)NCC(=O)N[C@@H](CCCN=C(N)N)C(=O)N2` (cyclo(C[aThr]KSLPPL[dC]FPDGR); disulfide 1-9), the GI50 in experiment [1], in experiment [2], in experiment [3], in experiment [5], in [6] and in experiment [7] was > 50 µM throughout. Moreover, the GI50 in [8], in [9] and in experiment [10] was > 50 µM each time. Also, the TGI in experiment [1], in [2], in experiment [3], in experiment [5], in experiment [6] and in experiment [7] was > 50 µM each time. Besides, the TGI in experiment [8], in experiment [9] and in experiment [10] was > 50 µM each time.

`CC(=O)O[C@H]1CC2C(C3CC[C@H](C(C)CCC(=O)O)[C@]31C)[C@H](OC(C)=O)C[C@@H]1CC3(CC[C@]21C)OOC1(CCC(C)CC1)OO3` (stereo not given in full): the GI50 in experiment [1] is 6.75 µM and 2.23 µM; in experiment [5], 9.81 µM and 2.79 µM; in experiment [6] it was 4.56 µM and 2.11 µM; in [7] it was 4.88 µM and 2.02 µM; in experiment [8], 6.18 µM and 2.11 µM. Further, the TGI in experiment [1] is 19.1 µM and 6.49 µM; in experiment [2] it was 8.21 µM and 4.4 µM; in experiment [3] it was 12.5 µM and 10.4 µM; in experiment [4] it was 19.3 µM and 10.9 µM; in experiment [5] it was 29.2 µM and 7.65 µM; in experiment [6], 22.8 µM and 5.34 µM. In addition, the TGI in experiment [7] is 18.3 µM and 4.53 µM; in experiment [8], 22.7 µM and 5.2 µM; in experiment [9] it was 24.8 µM and 24.3 µM.

With `O=C(COc1ccc(/C=C2\Oc3ccccc3C2=O)cc1)Nc1nc2ccccc2s1`, the GI50 is 1.79 µM in experiment [1]; 32 µM in experiment [2]; 23.6 µM in experiment [3]; 38.4 µM in experiment [4]; 4.7 µM in experiment [5]; 23.3 µM in experiment [6]. In addition, the GI50 is 2.92 µM in experiment [7], 8.24 µM in experiment [9] and 42 µM in experiment [10]. The TGI in [2] was > 89.8 µM; in experiment [3], > 100 µM; in experiment [4], > 100 µM; in experiment [5] it was 60.3 µM; in experiment [6], > 95.5 µM; in [7] it was > 100 µM. The TGI in experiment [9] is 45.2 µM; in experiment [10] it was > 100 µM.

As for `CC(C)[C@@H]1CC[C@]2(CO2)[C@@H]2C(=O)OCC(C(=O)O)=C[C@H]21`, the GI50 in experiment [1] was 0.411 µM; in experiment [2], 0.657 µM; in experiment [3] it was 0.352 µM; in experiment [4], 0.273 µM; in experiment [5], 0.363 µM; in experiment [6], 0.667 µM. In addition, the GI50 is 0.431 µM in [7], 0.34 µM in experiment [8] and 0.221 µM in [10]. Also, the TGI is > 100 µM in experiment [1]; > 57.7 µM in experiment [2]; > 33.9 µM in experiment [3]; 0.898 µM in experiment [4]; > 75.6 µM in experiment [5]; > 100 µM in experiment [6]. Further, the TGI was > 100 µM in experiment [7], > 52.5 µM in [8] and 0.578 µM in [10].
